For series [1] the following is noted: Crystal; DSC.
Series [2] can be described thus: Molar enthalpy of transition or fusion. The conditions noted are these: Crystal; DSC.

The structures appear in SMILES notation. Numbers after ± are expanded uncertainties.

As for `c1ccc2ccccc2c1` [naphthalene], in series [1], the Triple point temperature is 355.04 ± 2.1 K. Further, the “Molar enthalpy of transition or fusion” value in series [2] came to 4.99 ± 0.478 kcal/mol.

Source of the values: the NIST ThermoML archive (doi:10.1021/acs.jced.9b00064).
